Experimental data reported in US4439426A, “Semisynthetic macrolidic antibiotics, intermediate compounds for their preparation and related pharmaceutical compositions containing them” (priority 1981, dated 1984).

What was measured:
[1] = Stability in acidic environment at 25° C. (half-life of initial microbiological activity); assay type: physicochemical; details: aqueous solution
Procedure: Stability in acidic environnment at 25° C. of the novel
Note: t 1/2 represents the time for reducing to one half the initial powe
of the antibiotic determined by microbiological method through diffusion
on a plate using the test stock Microccocus luteus (Sarcina lutea) ATCC

[2] = tested on: Clostridium perfrigens ATCC 3624 LRP 206; experiment: microbe, parasite or virus in culture; assay type: cell-based; details: ATCC3624, solid medium, anaerobic, read-out: Minimum inhibiting concentration
Text: (§1) the bacteriostatic power, expressed as the minimum inhibiting concentration (MIC) against both aerobic and anaerobic, Gram positive and Gram negative, bacterial stocks: the related results are reported in the tables 2 and 3.

Salmonella typhy LRP 8 = experiment: microbe, parasite or virus in culture; assay type: cell-based; details: LRP8, solid medium, read-out: Minimum inhibiting concentration
Text: as §1

[3] = tested on: Staphylococcus aureus ATCC 6538 P LRP 39; experiment: Minimum bactericidal concentration (MBC); assay type: cell-based
Text: (§2) the bacterial power, expressed as the minimum bactericidal power (MBC) against some Gram positive aerobic stocks (table 5).

[4] = tested on: Streptococcus pyogenes ATCC 8668 LRP 34; experiment: Minimum bactericidal concentration (MBC); assay type: cell-based
Text: as §2

[5] = tested on: Corynebacterium diphteriae LRP 24; experiment: Minimum bactericidal concentration (MBC); assay type: cell-based
Text: as §2

[6] = tested on: Streptococcus pneumoniae ATCC 6303 LRP 35; experiment: Minimum bactericidal concentration (MBC); assay type: cell-based
Text: as §2

[7] = tested on: Streptococcus faecalis subs. zymogenes LRP 61; experiment: Minimum bactericidal concentration (MBC); assay type: cell-based
Text: as §2

Bacillus subtilis LRP 25 = experiment: Bacteriostatic power in solid medium (MIC); assay type: cell-based; details: Bacillus subtilis, LRP25, read-out: Minimum inhibiting concentration
Outline: (§3)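 Here MIC denotes bacteriostatic potency, determined on aerobic and anaerobic stocks from Gram-positive as well as Gram-negative genera.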

[8] = tested on: Staphylococcus aureus ATCC 14154 LRP 78; experiment: Bacteriostatic power in solid medium (MIC); assay type: cell-based; details: Staphylococcus aureus, ATCC14154, read-out: Minimum inhibiting concentration
Outline: as §3

[9] = tested on: Streptococcus faecalis LRP 7; experiment: Bacteriostatic power in solid medium (MIC); assay type: cell-based; details: Enterococcus faecalis, LRP7, read-out: Minimum inhibiting concentration
Outline: as §3

[10] = tested on: Acholeplasma laidlawii ATCC 23206 LRP 204; experiment: Bacteriostatic power in solid medium (MIC); assay type: cell-based; details: Acholeplasma laidlawii, ATCC23206, read-out: Minimum inhibiting concentration
Outline: as §3

[11] = tested on: Staphylococcus aureus ATCC 6538P LRP 39; experiment: Bacteriostatic power in solid medium (MIC); assay type: cell-based; details: Staphylococcus aureus, ATCC6538P, read-out: Minimum inhibiting concentration
Outline: as §3

[12] = tested on: Neisseria gonorrhoeae ATCC 19424 LRP 214; experiment: Bacteriostatic power in solid medium (MIC); assay type: cell-based; details: Neisseria gonorrhoeae, ATCC19424, read-out: Minimum inhibiting concentration
Outline: as §3

[13] = tested on: Mycoplasma hominis I ATCC 14027 LRP 211; experiment: Bacteriostatic power in solid medium (MIC); assay type: cell-based; details: Metamycoplasma hominis, ATCC14027, read-out: Minimum inhibiting concentration
Outline: as §3

[14] = tested on: Haemophilus influenzae ATCC 19418 LRP 213; experiment: Bacteriostatic power in solid medium (MIC); assay type: cell-based; details: Haemophilus influenzae, ATCC19418, read-out: Minimum inhibiting concentration
Outline: as §3

[15] = tested on: Streptococcus faecalis subsp. zymogenes ATCC 12958 LRP 61; experiment: Bacteriostatic power in solid medium (MIC); assay type: cell-based; details: Enterococcus faecalis, ATCC12958, read-out: Minimum inhibiting concentration
Outline: as §3

[16] = tested on: Streptococcus pneumoniae ATCC 6303 LRP 53; experiment: Bacteriostatic power in solid medium (MIC); assay type: cell-based; details: Streptococcus pneumoniae, ATCC6303, read-out: Minimum inhibiting concentration
Outline: as §3

[17] = tested on: Staphylococcus aureus ATCC 6538P LRP 14; experiment: Bacteriostatic power in solid medium (MIC); assay type: cell-based; details: Staphylococcus aureus, ATCC6538P, read-out: Minimum inhibiting concentration
Outline: as §3

[18] = tested on: Micrococcus luteus ATCC 15957 LRP 193; experiment: Bacteriostatic power in solid medium (MIC); assay type: cell-based; details: Micrococcus luteus, ATCC15957, read-out: Minimum inhibiting concentration
Outline: as §3

[19] = tested on: Streptococcus pyogenes ATCC 8668 LRP 197; experiment: Bacteriostatic power in solid medium (MIC); assay type: cell-based; details: Streptococcus pyogenes, ATCC8668, read-out: Minimum inhibiting concentration
Outline: as §3

Shigella sonnei LRP 5 = experiment: Bacteriostatic power in solid medium (MIC); assay type: cell-based; details: LRP5, read-out: Minimum inhibiting concentration
Outline: as §3

[20] = tested on: Pseudomonas aeruginosa LRP 9; experiment: Bacteriostatic power in solid medium (MIC); assay type: cell-based; details: Pseudomonas aeruginosa, LRP9, read-out: Minimum inhibiting concentration
Outline: as §3

[21] = tested on: Streptococcus pyogenes ATCC 8668 LRP 34; experiment: Bacteriostatic power in solid medium (MIC); assay type: cell-based; details: Streptococcus pyogenes, ATCC8668, read-out: Minimum inhibiting concentration
Outline: as §3

[22] = tested on: Streptococcus pneumoniae ATCC 6303 LRP 52; experiment: Bacteriostatic power in solid medium (MIC); assay type: cell-based; details: Streptococcus pneumoniae, ATCC6303, read-out: Minimum inhibiting concentration
Outline: as §3

[23] = tested on: Corynebacterium diphteriae LRP 24; experiment: Bacteriostatic power in solid medium (MIC); assay type: cell-based; details: Corynebacterium, LRP24, read-out: Minimum inhibiting concentration
Outline: as §3

[24] = tested on: Bacteroides fragilis ATCC 23745 LRP 205; experiment: Bacteriostatic power in solid medium (MIC); assay type: cell-based; details: Bacteroides fragilis, ATCC23745, read-out: Minimum inhibiting concentration
Outline: as §3

[25] = tested on: Streptococcus pneumoniae ATCC 6303 LRP 35; experiment: Bacteriostatic power in solid medium (MIC); assay type: cell-based; details: Streptococcus pneumoniae, ATCC6303, read-out: Minimum inhibiting concentration
Outline: as §3

[26] = tested on: Klelsiella pneumoniae LRP 54; experiment: Bacteriostatic power in solid medium (MIC); assay type: cell-based; details: read-out: Minimum inhibiting concentration
Outline: as §3

[27] = tested on: Micrococcus luteus ATCC 9341 LRP 6; experiment: Bacteriostatic power in solid medium (MIC); assay type: cell-based; details: Micrococcus luteus, ATCC9341, read-out: Minimum inhibiting concentration
Outline: as §3

[28] = tested on: Fusobacteriumnecrophroum ATCC 27852 LRP 210; experiment: Bacteriostatic power in solid medium (MIC); assay type: cell-based; details: read-out: Minimum inhibiting concentration
Outline: as §3

Escherichia coli LRP 50 = experiment: Bacteriostatic power in solid medium (MIC); assay type: cell-based; details: Escherichia coli, LRP50, read-out: Minimum inhibiting concentration
Outline: as §3

[29] = tested on: Proteus vulgaris ATCC 6380 LRP 13; experiment: Bacteriostatic power in solid medium (MIC); assay type: cell-based; details: Proteus vulgaris, ATCC6380, read-out: Minimum inhibiting concentration
Outline: as §3

[30] = tested on: Streptococcus faecalis subs. zymogenes ATCC 12958 LRP 61; experiment: Bacteriostatic power in liquid medium (MIC); assay type: cell-based; details: Enterococcus faecalis, ATCC12958, read-out: Minimum inhibiting concentration
Outline: as §3

[31] = tested on: Staphylococcus aureus ATCC 6538 P LRP 39; experiment: Bacteriostatic power in liquid medium (MIC); assay type: cell-based; details: Staphylococcus aureus, ATCC6538, read-out: Minimum inhibiting concentration
Outline: as §3

[32] = tested on: Streptococcus pyogenes ATCC 8668 LRP 34; experiment: Bacteriostatic power in liquid medium (MIC); assay type: cell-based; details: Streptococcus pyogenes, ATCC8668, read-out: Minimum inhibiting concentration
Outline: as §3

[33] = tested on: Corynebacterium diphteriae LRP 24; experiment: Bacteriostatic power in liquid medium (MIC); assay type: cell-based; details: Corynebacterium, LRP24, read-out: Minimum inhibiting concentration
Outline: as §3

[34] = tested on: Streptococcus pneumoniae ATCC 6303 LRP 35; experiment: Bacteriostatic power in liquid medium (MIC); assay type: cell-based; details: Streptococcus pneumoniae, ATCC6303, read-out: Minimum inhibiting concentration
Outline: as §3

CC[C@H]1OC(=O)[C@H](C)[C@@H](O[C@H]2C[C@H](OC)[C@@H](O)[C@H](C)O2)[C@H](C)[C@@H](O[C@@H]2O[C@H](C)C[C@H](N(C)C)[C@H]2O)[C@](C)(O)C[C@](C)(F)C(=O)[C@H](C)[C@@H](O)[C@]1(C)O [P-80207, 3-O-oleandrosyl-5-O-desosaminyl-(8S)-8-fluoroerythronolide A]
6.25 µg/mL: MIC [2] | MBC ([3]; Staphylococcus aureus, ATCC6538, read-out: Minimum bactericidal concentration (MBC)) | MBC ([7]; Enterococcus faecalis, read-out: Minimum bactericidal concentration (MBC))
3.12 µg/mL: MIC [10] | MIC [24]
0.049 µg/mL: MIC [21] | MIC [22] | MIC [23] | MIC [25] | MIC [27] | MIC [33] | MIC [34]
100 h: half-life ([1]; pH 3)
8: MBC/MIC [3] | MBC/MIC [4] | MBC/MIC [7]
25 µg/mL: MIC (Salmonella typhy LRP 8) | MIC [8] | MIC [13] | MIC [18] | MIC (Shigella sonnei LRP 5) | MIC [20] | MIC [26] | MIC (Escherichia coli LRP 50) | MIC [29]
10 h: half-life ([1]; pH 2)
0.39 µg/mL: MIC (Bacillus subtilis LRP 25) | MIC [9] | MIC [11] | MIC [15] | MIC [17]
12.5 µg/mL: MIC [14] | MIC [28]
0.097 µg/mL: MBC ([6]; Streptococcus pneumoniae, ATCC6303, read-out: Minimum bactericidal concentration (MBC)) | MIC [12] | MIC [16] | MIC [19] | MIC [32]
2: MBC/MIC [6]
0.78 µg/mL: MBC ([4]; Streptococcus pyogenes, ATCC8668, read-out: Minimum bactericidal concentration (MBC)) | MIC [30] | MIC [31]
0.195 µg/mL: MBC ([5]; Corynebacterium, LRP24, read-out: Minimum bactericidal concentration (MBC))
4: MBC/MIC [5]
